Source: ChEMBL document CHEMBL1201862, “PubChem BioAssay data set” (2004)
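Test compounds were applied to cells in 96-well plates for 48 hours at 5 doses. At the GI50, growth is halved.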 Activity calls are given as the source filed them. Rule as the data show it: active = GI50 up to about 1.1 µM and inactive = higher.

What was measured:
Experiment in all cases: inhibition of tumour cell growth, NCI panel, 48 h
CAKI-1 = test system: CAKI-1
HCC 2998 = test system: HCC 2998
K562 = test system: K562
ACHN = test system: ACHN
T47D = test system: T47D
DU-145 = test system: DU-145
HOP-62 = test system: HOP-62
M14 = test system: M14
SW-620 = test system: SW-620
SF-268 = test system: SF-268
IGROV-1 = test system: IGROV-1
NCI/ADR-RES = test system: NCI/ADR-RES
HCT-15 = test system: HCT-15
786-0 = test system: 786-0
MDA-N = test system: MDA-N
SN12C = test system: SN12C
SK-OV-3 = test system: SK-OV-3
OVCAR-4 = test system: OVCAR-4
SK-MEL-2 = test system: SK-MEL-2
SNB-19 = test system: SNB-19
HCT-116 = test system: HCT-116
MCF7 = test system: MCF7
TK-10 = test system: TK-10
NCI-H522 = test system: NCI-H522
MDA-MB-435 = test system: MDA-MB-435
HT-29 = test system: HT-29
OVCAR-3 = test system: OVCAR-3
Hs-578T = test system: Hs-578T
NCI-H460 = test system: NCI-H460
PC-3 = test system: PC-3
SR = test system: SR
UO-31 = test system: UO-31
OVCAR-5 = test system: OVCAR-5
SK-MEL-28 = test system: SK-MEL-28
SF-539 = test system: SF-539
SNB-75 = test system: SNB-75
U-251 = test system: U-251
BT-549 = test system: BT-549
EKVX = test system: EKVX
CCRF-CEM = test system: CCRF-CEM
SF-295 = test system: SF-295
LOX IMVI = test system: LOX IMVI
COLO 205 = test system: COLO 205
NCI-H226 = test system: NCI-H226
UACC-62 = test system: UACC-62
RXF 393 = test system: RXF 393
UACC-257 = test system: UACC-257
OVCAR-8 = test system: OVCAR-8
RPMI-8226 = test system: RPMI-8226
SK-MEL-5 = test system: SK-MEL-5
HL-60 = test system: HL-60
A549 = test system: A549
MDA-MB-231 = test system: MDA-MB-231
KM12 = test system: KM12
NCI-H23 = test system: NCI-H23
HOP-92 = test system: HOP-92
MOLT-4 = test system: MOLT-4
Malme-3M = test system: Malme-3M

Measured: GI50

Cc1cc(C)nc(NS(=O)(=O)c2ccc(NNC(=O)c3cccc4c(=O)c5ccccc5[nH]c34)cc2)n1
inactive: CAKI-1 > 100 µM | HCC 2998 44.9 µM | K562 41 µM | ACHN 32.4 µM | T47D 26.1 µM | DU-145 > 100 µM | HOP-62 71.8 µM | M14 > 100 µM | SW-620 83.8 µM | SF-268 43.2 µM | IGROV-1 36.7 µM | NCI/ADR-RES > 100 µM | 786-0 > 100 µM | MDA-N 75.9 µM | SN12C 96.6 µM | SK-OV-3 55.5 µM | OVCAR-4 72.3 µM | SNB-19 88.5 µM | HCT-116 48.9 µM | MCF7 > 100 µM | TK-10 > 100 µM | NCI-H522 33.6 µM | MDA-MB-435 61.8 µM | HT-29 66.5 µM | OVCAR-3 37.3 µM | Hs-578T 61.7 µM | NCI-H460 67.6 µM | PC-3 38.4 µM | SR 37.5 µM | UO-31 41.6 µM | OVCAR-5 21.5 µM | SK-MEL-28 29.2 µM | SF-539 > 100 µM | SNB-75 19.5 µM | U-251 25.2 µM | BT-549 53.5 µM | EKVX 23.1 µM | CCRF-CEM 35.4 µM | SF-295 80.5 µM | LOX IMVI 36 µM | COLO 205 > 100 µM | NCI-H226 51.1 µM | UACC-62 71.6 µM | RXF 393 36 µM | UACC-257 > 100 µM | OVCAR-8 83.4 µM | RPMI-8226 57.5 µM | SK-MEL-5 52.1 µM | HL-60 41.2 µM | A549 > 100 µM | MDA-MB-231 37.6 µM | KM12 39.5 µM | NCI-H23 63 µM | HOP-92 11.6 µM | MOLT-4 49.8 µM | Malme-3M 49.9 µM
active: SK-MEL-2 0.0493 µM
48.8 µM: HCT-15

C=CCOC(=O)C1=C(C)N=C2N[C@H](CCCCCCCCC)C[C@@H]3CCC1N23 (stereo partly specified)
inactive: CAKI-1 34 µM | HCC 2998 21.9 µM | K562 30.3 µM | ACHN 21.5 µM | T47D 23.2 µM | DU-145 27.4 µM | HOP-62 30.5 µM | M14 18.7 µM | SW-620 28.7 µM | SF-268 19.3 µM | IGROV-1 21.6 µM | NCI/ADR-RES 22.8 µM | 786-0 20 µM | MDA-N 18.4 µM | SN12C 18.2 µM | SK-OV-3 27.5 µM | OVCAR-4 21 µM | SK-MEL-2 19.8 µM | SNB-19 19.2 µM | HCT-116 18.8 µM | MCF7 18 µM | TK-10 19.2 µM | NCI-H522 16.7 µM | MDA-MB-435 20.3 µM | HT-29 27.9 µM | OVCAR-3 19.4 µM | Hs-578T 21.5 µM | NCI-H460 25.4 µM | PC-3 21.6 µM | SR 28.4 µM | UO-31 17.1 µM | OVCAR-5 22.7 µM | SK-MEL-28 21.7 µM | SF-539 19 µM | SNB-75 30.5 µM | U-251 20.9 µM | BT-549 19.9 µM | EKVX 22.4 µM | CCRF-CEM 36.4 µM | SF-295 34.9 µM | LOX IMVI 21.6 µM | COLO 205 21.3 µM | NCI-H226 17.9 µM | UACC-62 17.7 µM | RXF 393 19.5 µM | UACC-257 18.3 µM | OVCAR-8 30.5 µM | RPMI-8226 30.7 µM | SK-MEL-5 17.7 µM | HL-60 26.4 µM | A549 30.1 µM | MDA-MB-231 21.5 µM | KM12 34 µM | NCI-H23 20 µM | HOP-92 19.3 µM | MOLT-4 30.1 µM | Malme-3M 17.3 µM
21.3 µM: HCT-15
